Where a name gives a salt, the structure may show the parent alone. Read-outs that look alike come from different tables or passages of the source. *1 amine or outer side, *2 acyl side, *3 side chain or, on linkers, in order; H or OH if unused. Where a SMILES comes first, the peptide text is derived from it. Side-chain parts run from the residue outwards. [ ]: non-standard residue; d: D form. The star is where a group is joined. Propanoyl(3,3-Ph2) = O=C(CC(c1ccccc1)c1ccccc1)*; Butanoyl(3,3-Me2) = CC(C)(C)CC(=O)*; NMeF = CN[C@@H](Cc1ccccc1)C(=O)O; NMeD = CN[C@@H](CC(=O)O)C(=O)O; NH(2-Me-phenyl) = Cc1ccccc1N*; X5 = O=C(CCc1ccc(O)c(I)c1)*; PhAc = O=C(Cc1ccccc1)*; CO = O=C([*:1])[*:2]; Tfa = O=C(C(F)(F)F)*; X6 = O=C(Oc1ccccc1)*; Bz = O=C(c1ccccc1)*; NHPh = c1ccc(N*)cc1; NHtBu = CC(C)(C)N*; Moc = COC(=O)*
How the values were obtained:
[1] = biological target: T1, Type-A CCK receptor (Cavia porcellus, UniProt Q63931); experiment: Radioligand binding of [125I]BH-CCK-8 in guinea pig pancreatic membrane preparations
T1 construct: Cortical and pancreatic membranes were prepared as described; from tissue; host or cells: guinea pig pancreas membranes
T1 sequence (Q63931 1-430): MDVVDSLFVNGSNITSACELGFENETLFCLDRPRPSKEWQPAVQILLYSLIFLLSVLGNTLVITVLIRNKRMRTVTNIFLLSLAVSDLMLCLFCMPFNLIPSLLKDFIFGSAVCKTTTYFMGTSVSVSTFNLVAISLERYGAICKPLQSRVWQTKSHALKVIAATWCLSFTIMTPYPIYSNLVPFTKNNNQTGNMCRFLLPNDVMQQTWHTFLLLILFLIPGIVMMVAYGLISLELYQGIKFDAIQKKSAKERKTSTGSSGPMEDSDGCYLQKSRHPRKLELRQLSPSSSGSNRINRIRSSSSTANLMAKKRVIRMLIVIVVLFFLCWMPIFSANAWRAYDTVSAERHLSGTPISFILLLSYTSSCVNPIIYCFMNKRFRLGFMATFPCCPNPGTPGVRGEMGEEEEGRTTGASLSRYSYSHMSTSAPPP
How it was run: (§1)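 Membranes came from male guinea pig pancreas (type A) or cerebral cortex (type B) and were resuspended in pH 7.4 HEPES-EGTA-salt buffer containing bestatin and phosphoramidon. Test compounds competed with [125I]BH-CCK-8 in 0.1% BSA: cortex 150 min at 30 °C, pancreas 150 min at 37 °C. Reactions ended by filtration; IC50 from Hill analysis.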

[2] = biological target: T2, Type-B CCK receptor (Cavia porcellus, UniProt H0VZC5); experiment: Radioligand binding of [125I]BH-CCK-8 in guinea pig cerebral cortical membrane preparations
T2 construct: Cortical and pancreatic membranes were prepared as described; from tissue; host or cells: guinea pig cerebral cortex membranes
T2 sequence (H0VZC5 1-426): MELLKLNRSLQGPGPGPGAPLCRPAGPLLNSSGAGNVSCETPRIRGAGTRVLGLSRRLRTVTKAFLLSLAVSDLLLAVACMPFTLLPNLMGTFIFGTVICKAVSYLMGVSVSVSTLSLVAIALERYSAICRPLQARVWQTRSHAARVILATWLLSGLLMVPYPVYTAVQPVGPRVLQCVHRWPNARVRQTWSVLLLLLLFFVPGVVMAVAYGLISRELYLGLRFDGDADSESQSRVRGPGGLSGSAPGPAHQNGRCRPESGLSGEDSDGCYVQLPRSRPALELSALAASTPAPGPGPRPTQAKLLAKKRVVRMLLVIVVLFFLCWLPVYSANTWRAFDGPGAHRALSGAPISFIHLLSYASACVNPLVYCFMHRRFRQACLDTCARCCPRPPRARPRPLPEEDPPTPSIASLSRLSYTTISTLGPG
How it was run: as §1

[3] = IC50 (nM) 125I-BH-CCK-8 Type-A receptor, guinea pig pancreatic membranes, 37° C., 150 min
[4] = IC50 (nM) 125I-BH-CCK-8 Type-B receptor, guinea pig cortical membranes, 30° C., 150 minutes

Q: With `Cc1ccccc1NC(=O)NCCCC[C@H](NC(=O)[C@H](Cc1c[nH]c2ccccc12)NC(=O)Oc1ccccc1)C(=O)N[C@@H](CC(=O)O)C(=O)N(C)[C@@H](Cc1ccccc1)C(N)=O` [Example 79, Phenoxycarbonyl-Trp-Lys(ε-N-(2-methylphenyl)aminocarbonyl)-Asp-(NMe)PheNH2] (X6-WK([CO-NH(2-Me-phenyl)])D[NMeF]-NH2) as the compound, how does the IC50 [1] read?
A: 10 nM

Q: And the IC50 [2]?
A: 7200 nM

Q: Which IC50 [1] does the source give for `COC(=O)N[C@@H](Cc1c[nH]c2ccccc12)C(=O)N[C@@H](CCCCNC(=O)Nc1ccccc1C)C(=O)N[C@@H](CC(=O)O)C(=O)N(C)[C@@H](Cc1ccccc1)C(N)=O` [Example 80, Methoxycarbonyl-Trp-Lys(ε-N-(2-methylphenyl)aminocarbonyl)-Asp-(NMe)PheNH2] (Moc-WK([CO-NH(2-Me-phenyl)])D[NMeF]-NH2) here?
A: 4.8 nM

Q: And the IC50 [2]?
A: 5200 nM

Q: With `COC(=O)N[C@@H](Cc1c[nH]c2ccccc12)C(=O)N[C@@H](CCCCNC(=O)Nc1ccccc1C)C(=O)N(C)[C@@H](CC(=O)O)C(=O)N[C@@H](Cc1ccccc1)C(N)=O` [Example 81, Methoxycarbonyl-Trp-Lys(ε-N-(2-methylphenyl)aminocarbonyl)-(NMe)Asp-PheNH2] (Moc-WK([CO-NH(2-Me-phenyl)])[NMeD]F-NH2) as the compound, how does the IC50 [1, 3] read?
A: 2.1 nM

Q: And the IC50 [2, 4]?
A: > 10000 nM

Q: `Cc1ccccc1NC(=O)NCCCC[C@H](NC(=O)[C@H](Cc1c[nH]c2ccccc12)NC(=O)NC(C)(C)C)C(=O)N[C@@H](CC(=O)O)C(=O)N(C)[C@@H](Cc1ccccc1)C(N)=O` [Example 82, t-Butylaminocarbonyl-Trp-Lys(ε-N-(2-methylphenyl)aminocarbonyl)-Asp(NMe)PheNH2] ({NHtBu-CO}-WK([CO-NH(2-Me-phenyl)])D[NMeF]-NH2) was tested. Which IC50 [1] did it give?
A: 4.9 nM

Q: What about the IC50 [2] of the same compound?
A: 4400 nM

Q: What does the source list for `CNC(=O)N[C@@H](Cc1c[nH]c2ccccc12)C(=O)N[C@@H](CCCCNC(=O)Nc1ccccc1C)C(=O)N[C@@H](CC(=O)O)C(=O)N(C)[C@@H](Cc1ccccc1)C(N)=O` [Example 83, Methylaminocarbonyl-Trp-Lys(ε-N-(2-methylphenyl)aminocarbonyl)-Asp-(NMe)PheNH2] ({NHMe-CO}-WK([CO-NH(2-Me-phenyl)])D[NMeF]-NH2)?
A: IC50 [1, 3]: 9.7 nM; IC50 [2, 4]: 4900 nM

Q: What does the source list for `Cc1ccccc1NC(=O)NCCCC[C@H](NC(=O)[C@H](Cc1c[nH]c2ccccc12)NC(=O)Nc1ccccc1)C(=O)N[C@@H](CC(=O)O)C(=O)N(C)[C@@H](Cc1ccccc1)C(N)=O` [Example 84, Phenylaminocarbonyl-Trp-Lys(ε-N-(2-methylphenyl)aminocarbonyl)-Asp-(NMe)PheNH2] ({NHPh-CO}-WK([CO-NH(2-Me-phenyl)])D[NMeF]-NH2)?
A: IC50 [1, 3]: 3 nM; IC50 [2, 4]: 3000 nM

Q: Which results are given for `CC(=O)N[C@@H](Cc1c[nH]c2ccccc12)C(=O)N[C@@H](CCCCNC(=O)Nc1ccccc1C)C(=O)N[C@@H](CC(=O)O)C(=O)N(C)[C@@H](Cc1ccccc1)C(N)=O` [Example 85, Acetyl-Trp-Lys(ε-N-(2-methylphenyl)aminocarbonyl)-Asp-(NMe)PheNH2] (Ac-WK([CO-NH(2-Me-phenyl)])D[NMeF]-NH2)?
A: IC50 [1, 3]: 5.8 nM; IC50 [2, 4]: 10000 nM

Q: What does the source list for `CC(=O)N[C@@H](Cc1c[nH]c2ccccc12)C(=O)N[C@@H](CCCCNC(=O)Nc1ccccc1C)C(=O)N(C)[C@@H](CC(=O)O)C(=O)N[C@@H](Cc1ccccc1)C(N)=O` [Example 86, Acetyl-Trp-Lys(ε-N-(2-methylphenyl)aminocarbonyl)-(NMe)Asp-PheNH2] (Ac-WK([CO-NH(2-Me-phenyl)])[NMeD]F-NH2)?
A: IC50 [1, 3]: 6.7 nM; IC50 [2, 4]: > 10000 nM

Q: How did the IC50 [1, 3] turn out when `Cc1ccccc1NC(=O)NCCCC[C@H](NC(=O)[C@H](Cc1c[nH]c2ccccc12)NC(=O)CC(C)(C)C)C(=O)N[C@@H](CC(=O)O)C(=O)N(C)[C@@H](Cc1ccccc1)C(N)=O` [Example 87, t-Butylacetyl-Trp-Lys(ε-N-(2-methylphenyl)aminocarbonyl)-Asp-(NMe)PheNH2] ({Butanoyl(3,3-Me2)}-WK([CO-NH(2-Me-phenyl)])D[NMeF]-NH2) was run?
A: 4.5 nM

Q: And the IC50 [2, 4]?
A: 8400 nM

Q: How did the IC50 [1, 3] turn out when `Cc1ccccc1NC(=O)NCCCC[C@H](NC(=O)[C@H](Cc1c[nH]c2ccccc12)NC(=O)C(F)(F)F)C(=O)N(C)[C@@H](CC(=O)O)C(=O)N[C@@H](Cc1ccccc1)C(N)=O` [Example 88A, trifluoroacetyl-Trp-Lys(ε-N-(2-methylphenyl)aminocarbonyl)-(NMe)Asp-PheNH2] (Tfa-WK([CO-NH(2-Me-phenyl)])[NMeD]F-NH2) was run?
A: 4.4 nM

Q: What about the IC50 [2, 4] of the same compound?
A: > 10000 nM

Q: How did the IC50 [1, 3] turn out when `Cc1ccccc1NC(=O)NCCCC[C@H](NC(=O)[C@H](Cc1c[nH]c2ccccc12)NC(=O)CC(C)(C)C)C(=O)N(C)[C@@H](CC(=O)O)C(=O)N[C@@H](Cc1ccccc1)C(N)=O` [Example 88B, t-butylacetyl-Trp-Lys(ε-N-(2-methylphenyl)aminocarbonyl)-(NMe)Asp-PheNH2] ({Butanoyl(3,3-Me2)}-WK([CO-NH(2-Me-phenyl)])[NMeD]F-NH2) was run?
A: 3.7 nM

Q: What about the IC50 [2, 4] of the same compound?
A: > 10000 nM

Q: `Cc1ccccc1NC(=O)NCCCC[C@H](NC(=O)[C@H](Cc1c[nH]c2ccccc12)NC(=O)c1ccccc1)C(=O)N[C@@H](CC(=O)O)C(=O)N(C)[C@@H](Cc1ccccc1)C(N)=O` [Example 89, Benzoyl-Trp-Lys(ε-N-(2-methylphenyl)aminocarbonyl)-Asp-(NMe)PheNH2] (Bz-WK([CO-NH(2-Me-phenyl)])D[NMeF]-NH2) was tested. Which IC50 [1, 3] did it give?
A: 1.8 nM

Q: What about the IC50 [2, 4] of the same compound?
A: 4600 nM

Q: For `Cc1ccccc1NC(=O)NCCCC[C@H](NC(=O)[C@H](Cc1c[nH]c2ccccc12)NC(=O)c1ccccc1)C(=O)N(C)[C@@H](CC(=O)O)C(=O)N[C@@H](Cc1ccccc1)C(N)=O` [Example 90, Benzoyl-Trp-Lys(ε-N-(2-methylphenyl)aminocarbonyl)-(NMe)Asp-PheNH2] (Bz-WK([CO-NH(2-Me-phenyl)])[NMeD]F-NH2), which IC50 [1, 3] is on record?
A: 2.7 nM

Q: What about the IC50 [2, 4] of the same compound?
A: 5100 nM

Q: With `Cc1ccccc1NC(=O)NCCCC[C@H](NC(=O)[C@H](Cc1c[nH]c2ccccc12)NC(=O)Cc1ccccc1)C(=O)N[C@@H](CC(=O)O)C(=O)N(C)[C@@H](Cc1ccccc1)C(N)=O` [Example 91, Phenylacetyl-Trp-Lys(ε-N-(2-methylphenyl)aminocarbonyl)-Asp-(NMe)PheNH2] (PhAc-WK([CO-NH(2-Me-phenyl)])D[NMeF]-NH2) as the compound, how does the IC50 [1, 3] read?
A: 19 nM

Q: And the IC50 [2, 4]?
A: > 10000 nM

Q: With `Cc1ccccc1NC(=O)NCCCC[C@H](NC(=O)[C@H](Cc1c[nH]c2ccccc12)NC(=O)CC(c1ccccc1)c1ccccc1)C(=O)N[C@@H](CC(=O)O)C(=O)N(C)[C@@H](Cc1ccccc1)C(N)=O` [Example 92, (3,3-Diphenylpropionyl)-Trp-Lys(ε-N-(2-methylphenyl)aminocarbonyl)-Asp-(NMe)PheNH2] ({Propanoyl(3,3-Ph2)}-WK([CO-NH(2-Me-phenyl)])D[NMeF]-NH2) as the compound, how does the IC50 [1] read?
A: 5.6 nM

Q: What about the IC50 [2] of the same compound?
A: 5000 nM

Q: With `Cc1ccccc1NC(=O)NCCCC[C@H](NC(=O)[C@H](Cc1c[nH]c2ccccc12)NC(=O)CCc1ccc(O)c(I)c1)C(=O)N[C@@H](CC(=O)O)C(=O)N(C)[C@@H](Cc1ccccc1)C(N)=O` [Example 93, (3-(4-Hydroxy-3-iodophenyl)propionyl)-Trp-Lys(ε-N-(2-methylphenyl)aminocarbonyl)-Asp-(NMe)PheNH2] (X5-WK([CO-NH(2-Me-phenyl)])D[NMeF]-NH2) as the compound, how does the IC50 [1] read?
A: 4.6 nM

Q: What about the IC50 [2] of the same compound?
A: 4200 nM
